Measured values from ChEMBL document CHEMBL1134487, “Design, synthesis, and biological evaluation of analogues of the antitumor agent, 2-(4-[(7-chloro-2-quinoxalinyl)oxy]phenoxy)propionic acid (XK469)” (2001).
Activity calls are given as the source filed them. The rule behind the calls is not given here.

What was measured:
[1] = system: Mus musculus; assay: In vivo activity against iv transplanted AML Leukemia 1498 tumors of mice; assay type: functional, organism-based
[2] = system: Mus musculus; assay: In vivo activity against iv transplanted Leukemia L1210 tumors of mice; assay type: functional, organism-based
[3] = system: Mus musculus; assay: In vivo activity against transplanted Mam-16/C tumors of mice; assay type: functional, organism-based
[4] = system: Mus musculus; assay: In vivo activity against transplanted Mam-16/C/ Taxol tumors of mice; assay type: functional, organism-based
[5] = system: Mus musculus; assay: In vivo activity against transplanted Mam-16/C/Adr tumors of mice; assay type: functional, organism-based
[6] = system: Mus musculus; assay: In vivo activity against transplanted Mam-17/Adr tumors of mice; assay type: functional, organism-based
[7] = system: Mus musculus; assay: In vivo activity against transplanted Panc-02 tumors of mice; assay type: functional, organism-based
[8] = system: Mus musculus; assay: In vivo activity against transplanted Panc-03 tumors of mice; assay type: functional, organism-based
[9] = system: Mus musculus; assay: In vivo activity against transplanted Squam lung-LC12 tumors of mice; assay type: functional, organism-based
[10] = system: Mus musculus; assay: In vivo activity against transplanted colon-26 tumors of mice; assay type: functional, organism-based
[11] = system: Mus musculus; assay: In vivo activity against transplanted colon-38 tumors of mice; assay type: functional, organism-based
[12] = system: Mus musculus; assay: In vivo activity against transplanted colon-51 tumors of mice; assay type: functional, organism-based
[13] = system: Mus musculus; assay: In vivo activity against transplanted Mel-B16 tumors of mice; assay type: functional, organism-based
[14] = system: Mus musculus; assay: In vivo activity against transplanted Mam-17 tumors of mice; assay type: functional, organism-based
[15] = system: Mus musculus; assay: In vivo antitumor activity against tumor […]; Inactive; assay type: functional, organism-based
[16] = system: Mus musculus; assay: In vivo activity against transplanted Mam-16/C/ Taxol tumors of mice; Not active; assay type: functional, organism-based
[17] = system: Mus musculus; assay: In vivo activity against transplanted Mam-16/C/Adr tumors of mice; Not active; assay type: functional, organism-based
[18] = species: Mus musculus; assay: […] activity against C3H mice bearing panc-03 murine tumor; Inactive; assay type: functional, organism-based
[19] = system: Mus musculus; assay: In vivo activity against iv transplanted AML Leukemia 1498 tumors of mice; Not active; assay type: functional, organism-based
[20] = system: Mus musculus; assay: In vivo activity tested against C3H mice bearing mammary adenocarcinoma -17/ADR tumor measured as body weight loss at 301 mg/kg (po); assay type: functional
[21] = system: Mus musculus; assay: In vivo activity tested against C3H mice bearing mammary adenocarcinoma -17/ADR tumor measured as % treated/control calculated at 301 mg/kg (po); assay type: functional
[22] = system: Mus musculus; assay: In vivo activity tested against C3H mice bearing mammary adenocarcinoma -17/ADR tumor measured as activity rating at 301 mg/kg (po); assay type: functional
[23] = system: Mus musculus; assay: In vivo activity tested against C3H mice bearing mammary adenocarcinoma -17/ADR tumor measured as log Kill value was based on tumors that grew at 301 mg/kg (po); assay type: functional, organism-based; design: dose 301 mg/kg
[24] = system: Mus musculus; assay: In vivo activity against transplanted Mam-16/C/Taxol tumors of mice; assay type: functional, organism-based
[25] = system: Mus musculus; assay: In vivo activity against C3H mice bearing panc-03 murine tumor; Inactive; assay type: functional, organism-based

Compound | Log kill [1] | Log kill [2] | Log kill [3] | Log kill [5] | Log kill [6] | Log kill [7] | Log kill [8] | Log kill [9] | Log kill [10] | Log kill [11] | Log kill [12] | Log kill [13] | Log kill [14] | NA [16] | further results
CC[C@]1(O)C[C@@H]2CN(CCc3c([nH]c4ccccc34)[C@@](C(=O)OC)(c3cc4c(cc3OC)N(C)[C@H]3[C@@](O)(C(=O)OC)[C@H](OC(C)=O)[C@]5(CC)C=CCN6CC[C@]43[C@@H]65)C2)C1 | < 0.7 | 1.9 | 1.9 | < 0.7 | < 0.7 | < 0.7 | < 0.7 | < 0.7 | < 0.7 | 2.8 | < 0.7 | < 0.7 | < 0.7 |  | Log kill [4]: < 0.7
CC(Oc1ccc(Sc2cnc3ccc(Cl)cc3n2)cc1)C(=O)O (stereo unspecified) |  |  |  |  |  |  |  |  |  |  |  |  |  |  | NA [15]: inactive
Nc1ccn([C@@H]2O[C@H](CO)[C@@H](O)[C@@H]2O)c(=O)n1 | > 2.8 | > 5 | 1.9 |  | 2.8 | < 0.7 | < 0.7 | < 0.7 | < 0.7 | 1.9 | < 0.7 | < 0.7 | 1.9 | inactive | NA [17]: inactive
CC(C#N)Oc1ccc(Oc2cnc3ccc(Cl)cc3n2)cc1 (stereo unspecified) |  |  |  |  |  |  |  |  |  |  |  |  |  |  | NA [18]: inactive
CISPLATIN |  | 2.9 | 1.2 | 1.2 | > 2.8 | < 0.7 | 1.9 | > 2.8 | 1.9 | 0.7 | 1.9 | 1.9 | 2.8 | inactive | NA [19]: inactive
O=c1[nH]cc(F)c(=O)[nH]1 | 1.2 | 4.9 | 2.8 | 2.8 | < 0.7 | < 0.7 | 1.2 | < 0.7 | 1.9 | 2.8 | < 0.7 | 1.9 | 1.2 | inactive | 
CC(=O)O[C@H]1C(=O)[C@@]2(C)[C@H]([C@H](OC(=O)c3ccccc3)[C@]3(O)C[C@H](OC(=O)[C@H](O)[C@@H](NC(=O)c4ccccc4)c4ccccc4)C(C)=C1C3(C)C)[C@]1(OC(C)=O)CO[C@@H]1C[C@@H]2O | < 0.7 | < 1 | > 2.8 | < 0.7 | < 0.7 | < 0.7 | > 2.8 | < 0.7 | 0.7 | > 2.8 | 1.2 | 0.7 | > 2.8 |  | Log kill [4]: < 0.7
O=P1(N(CCCl)CCCl)NCCCO1 (stereo unspecified) | > 2.8 | 4.9 | 2.8 | > 2.8 | 2.8 | < 0.7 | 1.9 | > 2.8 | 1.9 | 0.7 | 1.9 | 1.9 | 2.8 | inactive | 
C[C@H](Oc1ccc(Oc2cnc3ccc(Cl)cc3n2)cc1)C(=O)O |  |  |  |  |  |  |  |  |  |  |  |  |  |  | Body weight loss [20]: -3%; T/C [21]: 0%; Activity rating [22]: >2.8; Log kill [23]: 2.7
COc1cccc2c1C(=O)c1c(O)c3c(c(O)c1C2=O)C[C@@](O)(C(=O)CO)C[C@@H]3O[C@H]1C[C@H](N)[C@H](O)[C@H](C)O1 | > 2.8 | 1.9 | > 2.8 | 0.7 | < 0.7 | < 0.7 | 2.8 | > 2.8 | 0.7 | 1.9 | 0.7 | 0.7 | > 2.8 |  | Log kill [24]: 2.8
CC(Oc1ccc(Oc2cnc3ccc(N)cc3n2)cc1)C(=O)O (stereo unspecified) |  |  |  |  |  |  |  |  |  |  |  |  |  |  | NA [18]: inactive
CC(Oc1ccc(Oc2cnc3ccc(Cl)cc3n2)cc1)C(=O)NO (stereo unspecified) |  |  |  |  |  |  |  |  |  |  |  |  |  |  | NA [25]: inactive
